# Assay results: patent publication US9642803B2, “Nano-sized particles comprising multi-headed amphiphiles for targeted drug delivery” (Ben-Gurion University Of The Negev Research And Development …, priority 2009, dated 2017)
# How the values were obtained:
# [1] = Percentage of encapsulation in bolaamphiphile vesicles; format: physicochemical
# mice = test: Hot plate test (analgesic effect) in mice; format: in vivo; settings: for response time: nanoparticles by ethanol injection, encapsulated groups pre-injected with pyridostigmine 0.5 mg/kg; for analgesic effect: i.v. 20 mg/Kg
# Protocol: The response of mice to a transient painful stimulus was measured following administration of the test material (either i.v. into the tail vein or per os by gavages). The analgesic effect was determined by placing the mouse on a hot plate (55° C., IITC model 39) and recording the time for withdrawing/licking the hind limb (hot plate test). To prevent tissue damage and suffering of the animal, the experiment was terminated after 20 sec if no response was evoked. The response latencies were recorded and either used by themselves for comparison or normalized as percent of maximal possible effect (MPE) using the equation: […]
# where: RT—is the response latency after treatment; RT0—is the response latency of a mouse without treatment and RTmax—is the maximal response time allowed (20 sec).
# Derivative 4-nanoparticles comprising leu-enkephalin, prepared as described in Example 9 by FHS (film hydration flowed by sonication), were administered to mice and their ability to exert an analgesic effect was measured by the hot plate test described in Methods.
# Nanoparticles were made from 10 mg/ml Derivative 4 with cholesterol and cholesteryl hemisuccinate as additives (2:1:1) and 10% molar ratio chitosan (CS)-vernolic acid conjugate in presence of 2.5 mg/ml leu-enkephalin. In these nanoparticles, CS-vernolic acid conjugate serves as a pendant on the nanoparticles/vesicles in order to enhance penetrability.
# Nanoparticles were injected into the tail vein at a dose of 20 mg/kg bolaamphiphile, which corresponds to 5 mg/kg leu-enkephaime. Empty nanoparticles and free leu-enkephalin injected in a dose of 20 mg/kg, were used as a negative control and morphine at a dose of 5 mg/kg was used as a positive control. Mice were pretreated with 0.5 mg/kg pyridostigmine 15 min prior to the injection of the nanoparticles. Pyridostigmine inhibits the activity of acetylcholine esterase and thus prevents hydrolysis of the acetyl choline headgroups in the periphery.
# Analgesic effect studies (hot plate test) in mice were carried out using nanoparticles comprising Derivative 1 or Derivative 4 and prepare by the ethanol injection technique described in Example 10. The hot plate test was preformed as described in Example 19. All mice treated with encapsulated leu-enkephalin, were pre-injected with the periphery acetylcholine esterase inhibitor pyridostigmine (0.5 mg/kg).
# The efficacy of delivering leu-enkephalin in various nanoparticles in oral formulations versus i.v. injectable formulations were tested (a hot plate test of Example 20). Thus, formulations comprising leu-enkephalin encapsulated in the following nanoparticles were prepared: (a) nanoparticles comprising Derivative 4, cholesterol, cholesteryl hemisuccinate and vernolyl-chitosan prepared according to Example 13(i); (b) nanoparticles comprising distearyl phosphatidyl choline (DSPC) as the amphiphilic compound, cholesterol, prepared as described in Example 13(iii).
# Formulations comprising […] leu-enkephalin loaded nanoparticles were administered by gavages at a dose of 100 mg/kg bolaamphiphile, which corresponds to 25 mg/kg leu-enkephalin. The same dose of free leu-enkephalin was administered by gavages as a control. The results were compared to liposomes made from 20 mg/ml DSPC in presence of 5 mg/ml leu-enkephalin and administered at a dose of 200 mg/kg phospholipid, which corresponds to 50 mg/kg leu-enkephalin. The mice were preinjected with pyridostigmine as in example 20. The results, are shown in FIG. 2, represent the analgesic effect as percent of maximal possible response (MPE).
# In order to assess an optimized delivery and targeted release efficiencies, the analgesic effect of formulations containing nanoparticles comprising Derivative 4, cholesterol, cholesteryl hemisuccinate and vernoyl chitosan as additives (chitosan nanoparticles), and various amounts of leu-enkephalin was studied by the hot plate test. Nanoparticles were prepared as described in Example 15. […]
compound,measurement,setting,value
[5-Leucine] Enkephalin [free leu-enkephalin],percentage of encapsulation at pH above pI relative to pH below pI,"[1]; Derivative 4/cholesterol/cholesteryl hemisuccinate nanoparticles, TBS pH 8.5",2 to 4 times
same,response time,mice; 10 minutes after i.v. injection,3 s
same,response time,mice; 30 minutes after i.v. injection,2 s
same,response time,mice; 60 minutes after i.v. injection,2 s
same,analgesic effect,"mice; mice pretreated with pyridostigmine, Example 27",no significant analgesic effect
same,analgesic effect,mice; Example 28,no significant analgesic effect
"CN(C)C(=O)Oc1ccc[n+](C)c1.[Br-] [pyridostigmine, 3-(Dimethylamino-carbonyloxy)-1-methylpyridinium bromide]",analgesic response of pyridostigmine by itself,mice; 0.5 mg/kg,does not evoke an analgesic response
5(6)-Carboxyfluorescein [CF],percentage of CF encapsulation,"[1]; Derivative 4/cholesterol/cholesteryl hemisuccinate/PEG(201) or PEG(202) 100:25:25:10 nanoparticles, PBS pH 8.0",20%
